# According to patent US20250041304A1 (Eli Lilly and Company, priority 2021, published 2025):
# Read-outs that look alike come from different tables or passages of the source.
# Assays:
# patients with HE = conditions: cited from earlier work; for HE severity after treatment / HECSI score after treatment: after 16 weeks; for HE severity after treatment: 'severe' at start
# HE = assay: clinical studies of baricitinib for treating HE (Example 2, with Davos Biosciences GmbH); assay type: in vivo, human; conditions: daily dosage of 4 mg
compound,measurement,setting,value
"CCS(=O)(=O)N1CC(CC#N)(n2cc(-c3ncnc4[nH]ccc34)cn2)C1 [baricitinib, {1-(ethylsulfonyl)-3-[4-(7H-pyrrolo[2,3-d]pyrimidin-4-yl)-1H-pyrazol-1-yl]azetidin-3-yl}acetonitrile]",treatment outcome of two patients with HE,patients with HE; 4 mg tablet once per day,successfully treated
same,HE severity after treatment,"patients with HE; case 1: severe hyperkeratotic HE, 4 mg once per day",almost clear
same,HECSI score after treatment,"patients with HE; case 1, 4 mg once per day, HECSI 55 (severe) at start",4
same,tolerability / side effects,"patients with HE; case 1, 4 mg once per day",no side effects occurred
same,quality of life (QOLHEQ) after treatment,"patients with HE; case 1, improved from ""strongly impaired""",not at all impaired
same,HE severity after treatment,"patients with HE; case 2: severe AD with severe atopic HE, 4 mg per day tapered to 2 mg per day at 12 weeks",almost clear
same,HECSI score after treatment,"patients with HE; case 2, 4 mg per day tapered to 2 mg at 12 weeks, HECSI 47 (severe) at start",8
same,adverse event leading to discontinuation,"patients with HE; case 2, at 16 weeks",bacterial corneal ulcer
same,quality of life (QOLHEQ) after treatment,"patients with HE; case 2, improved from ""moderately impaired""",not at all impaired
same,efficacy in HE (photographic images and additional clinical data),HE,effective
